For experiment [1], the target named is T1, 3-hydroxy-3-methylglutaryl-coenzyme A reductase (Rattus norvegicus, UniProt P51639).
T1 sequence (P51639 whole entry): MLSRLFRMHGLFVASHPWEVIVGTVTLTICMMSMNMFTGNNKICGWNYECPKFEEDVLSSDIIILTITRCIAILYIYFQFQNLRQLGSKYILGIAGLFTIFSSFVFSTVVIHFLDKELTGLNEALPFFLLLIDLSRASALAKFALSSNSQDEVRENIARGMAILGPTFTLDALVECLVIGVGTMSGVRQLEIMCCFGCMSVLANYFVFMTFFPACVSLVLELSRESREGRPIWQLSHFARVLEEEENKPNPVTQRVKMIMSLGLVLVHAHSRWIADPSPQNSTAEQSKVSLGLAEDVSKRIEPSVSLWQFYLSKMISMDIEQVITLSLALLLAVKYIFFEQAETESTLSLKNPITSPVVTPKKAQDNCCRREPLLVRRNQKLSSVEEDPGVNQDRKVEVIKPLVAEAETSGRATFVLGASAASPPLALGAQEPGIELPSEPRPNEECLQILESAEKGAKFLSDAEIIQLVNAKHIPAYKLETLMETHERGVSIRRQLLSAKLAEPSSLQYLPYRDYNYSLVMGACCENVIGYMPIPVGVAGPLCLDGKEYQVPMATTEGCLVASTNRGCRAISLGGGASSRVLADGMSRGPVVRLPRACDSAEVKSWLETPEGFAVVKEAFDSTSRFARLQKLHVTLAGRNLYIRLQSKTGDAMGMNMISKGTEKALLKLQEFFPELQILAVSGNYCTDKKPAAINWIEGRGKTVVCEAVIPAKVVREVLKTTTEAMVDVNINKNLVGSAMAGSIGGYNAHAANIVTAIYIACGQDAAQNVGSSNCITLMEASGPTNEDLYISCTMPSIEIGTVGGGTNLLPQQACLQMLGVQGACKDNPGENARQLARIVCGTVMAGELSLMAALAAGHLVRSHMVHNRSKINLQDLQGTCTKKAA
Put plainly: Inhibitory activity against partially purified rat liver HMG-CoA reductase in vitro; 1.9-5.3.

Experiment [2] concerns the target T1, 3-hydroxy-3-methylglutaryl-coenzyme A reductase. Put plainly: Inhibitory activity against partially purified rat liver HMG-CoA reductase in vitro; 3.1-9.1.
In experiment [3] the test system is HepG2. Put plainly: Tested for ability to inhibit incorporation of [14C]acetate into cholesterol in cultured human hepatoma (HEP-G2) cells; 0.11-0.27. The class given is functional, cell-based.
In experiment [4] the target is T1, 3-hydroxy-3-methylglutaryl-coenzyme A reductase. Put plainly: Inhibitory activity against partially purified rat liver HMG-CoA reductase in vitro; 0.047-0.098.
The target is the same in experiment [5]. Put plainly: Inhibitory activity against partially purified rat liver HMG-CoA reductase in vitro; 0.021-0.036.
The subject of experiment [6] is HepG2. Nature of the experiment: Tested for ability to inhibit incorporation of [14C]acetate into cholesterol in cultured human hepatoma (HEP-G2) cells; 0.26-0.80. In kind it is functional, cell-based.
Experiment [7] addresses T1, 3-hydroxy-3-methylglutaryl-coenzyme A reductase. Nature of the experiment: Inhibitory activity against partially purified rat liver HMG-CoA reductase in vitro; 3.8-19.
Experiment [8] has the same target. Put plainly: Inhibitory activity against partially purified rat liver HMG-CoA reductase in vitro; 1.7-2.6.
Experiment [9] has the same target. Put plainly: Inhibitory activity against partially purified rat liver HMG-CoA reductase in vitro; 4.1-22.
Experiment [10] has the same target. Nature of the experiment: Inhibitory activity against partially purified rat liver HMG-CoA reductase in vitro; 0.026-0.34.
Experiment [11] has as its system HepG2. Put plainly: Tested for ability to inhibit incorporation of [14C]acetate into cholesterol in cultured human hepatoma (HEP-G2) cells; 0.16-0.68. The class given is functional, cell-based.
Experiment [12] concerns the target T1, 3-hydroxy-3-methylglutaryl-coenzyme A reductase. Put plainly: Inhibitory activity against partially purified rat liver HMG-CoA reductase in vitro; 0.17-0.61.
Experiment [13] deals with HepG2. Nature of the experiment: Tested for ability to inhibit incorporation of [14C]acetate into cholesterol in cultured human hepatoma (HEP-G2) cells; 2.9-4.6. In kind it is functional, cell-based.
Experiment [14] has as its target T1, 3-hydroxy-3-methylglutaryl-coenzyme A reductase. Put plainly: Inhibitory activity against partially purified rat liver HMG-CoA reductase in vitro; 0.0050-0.016.
Experiment [15] concerns HepG2. Nature of the experiment: Tested for ability to inhibit incorporation of [14C]acetate into cholesterol in cultured human hepatoma (HEP-G2) cells; 0.22-0.48. In kind it is functional, cell-based.
Experiment [16] concerns the target T1, 3-hydroxy-3-methylglutaryl-coenzyme A reductase. Nature of the experiment: Inhibitory activity against partially purified rat liver HMG-CoA reductase in vitro; 1.8-3.7.
For experiment [17] the target is unchanged. Nature of the experiment: Inhibitory activity against partially purified rat liver HMG-CoA reductase in vitro; 0.73-10.
Experiment [18] concerns HepG2. Put plainly: Tested for ability to inhibit incorporation of [14C]acetate into cholesterol in cultured human hepatoma (HEP-G2) cells; 0.73-91. The class given is functional, cell-based.
Experiment [19] has as its system HepG2. Put plainly: Tested for ability to inhibit incorporation of [14C]acetate into cholesterol in cultured human hepatoma (HEP-G2) cells; 0.15-1.7. In kind it is functional, cell-based.
For experiment [20], the target named is T1, 3-hydroxy-3-methylglutaryl-coenzyme A reductase. Put plainly: Inhibitory activity against partially purified rat liver HMG-CoA reductase in vitro; 0.015-0.51.
In experiment [21] the test system is HepG2. Nature of the experiment: Tested for ability to inhibit incorporation of [14C]acetate into cholesterol in cultured human hepatoma (HEP-G2) cells; 0.053-0.12. The class given is functional, cell-based.
Experiment [22] concerns HepG2. Nature of the experiment: Tested for ability to inhibit incorporation of [14C]acetate into cholesterol in cultured human hepatoma (HEP-G2) cells; 0.061-0.10. In kind it is functional, cell-based.
In experiment [23] the target is T1, 3-hydroxy-3-methylglutaryl-coenzyme A reductase. Nature of the experiment: Inhibitory activity against partially purified rat liver HMG-CoA reductase in vitro; 0.23-0.71.

Each structure is given as a SMILES string. pIC50: −log10 of the molar value.

As usually defined, the pIC50 is the IC50 on a negative log10 scale, so that one unit is a factor of ten.

For `CCC(C)C1CCCc2c1nn(-c1ccc(F)cc1)c2/C=C/[C@@H](O)C[C@@H](O)CC(=O)O` (stereo partly drawn), the pIC50 in experiment [1] was 5.49.

In turn, `O=C(O)C[C@H](O)C[C@H](O)/C=C/c1c2c(nn1-c1ccc(F)cc1)CCCC2` had a pIC50 in [2] of 5.28.

Consider `O=C(O)C[C@H](O)C[C@H](O)/C=C/c1c2c(nn1-c1ccc(F)cc1)C(Cc1ccccc1)CCC2` (stereo partly drawn), for which the figures for the pIC50 (with HepG2 [3]; in experiment [4]) were 6.77 and 7.17, respectively.

Consider `O=C(O)C[C@H](O)C[C@H](O)/C=C/c1c2c(nn1-c1ccc(F)cc1)C(Cc1cccc3ccccc13)CCC2` (stereo partly drawn), for which the figures for the pIC50 (in experiment [5]; in the experiment on HepG2 [6]) were 7.55 and 6.34, respectively.

In experiment [7], `O=C(O)C[C@H](O)C[C@H](O)/C=C/c1c2c(nn1-c1ccc(F)cc1)C(C1CCCCC1)CCC2` (stereo partly drawn) showed a pIC50 of 5.07.

`CC1CCCc2c1nn(-c1ccc(F)cc1)c2/C=C/[C@@H](O)C[C@@H](O)CC(=O)O` (stereo partly drawn) showed a pIC50 in experiment [8] of 5.68.

`O=C(O)C[C@H](O)C[C@H](O)/C=C/c1c2c(nn1-c1ccc(F)cc1)-c1ccccc1CC2`: in experiment [9], the negative logarithm of the IC50 (pIC50) is 5.03.

Consider `O=C(O)C[C@H](O)C[C@H](O)/C=C/c1c2c(nn1-c1ccc(F)cc1)C(Cc1ccccc1Cl)CCC2` (stereo partly drawn), for which the negative logarithm of the IC50 (pIC50) was 7.02 in experiment [10] and 6.48 in the experiment with HepG2 [11].

On to `COc1ccc(CC2CCCc3c2nn(-c2ccc(F)cc2)c3/C=C/[C@@H](O)C[C@@H](O)CC(=O)O)cc1OC` (stereo partly drawn), for which the values for the pIC50 (in experiment [12]; with HepG2 [13]) were 6.49 and 5.44, respectively.

For the molecule `O=C(O)C[C@H](O)C[C@H](O)/C=C/c1c2c(nn1-c1ccc(F)cc1)C(Cc1ccc3ccccc3c1)CCC2` (stereo partly drawn), the pIC50 in [14] is 8.05; in the experiment on HepG2 [15], 6.48.

Consider `O=C(O)C[C@H](O)C[C@H](O)/C=C/c1c2c(nn1-c1ccc(F)cc1)-c1ccccc1CCC2`, for which the pIC50 in experiment [16] is 5.59.

Consider `O=C(O)C[C@H](O)C[C@H](O)/C=C/c1c2c(nn1-c1ccc(F)cc1)C(c1ccccc1)CCC2` (stereo partly drawn), for which the pIC50 in experiment [17] is 5.55; in the experiment on HepG2 [18], 5.09.

For `COc1ccc(CC2CCCc3c2nn(-c2ccc(F)cc2)c3/C=C/[C@@H](O)C[C@@H](O)CC(=O)O)cc1` (stereo partly drawn), the pIC50 was 6.30 in the experiment on HepG2 [19] and 7.55 in experiment [20].

On to `CC(C)n1c(/C=C/C(O)CC(O)CC(=O)O)c(-c2ccc(F)cc2)c2ccccc21` (stereo not drawn) [FLUVASTATIN SODIUM], for which, in the experiment with HepG2 [21], the pIC50 was 7.10.

Regarding `CC[C@H](C)C(=O)O[C@H]1C[C@@H](C)C=C2C=C[C@H](C)[C@H](CC[C@@H]3C[C@@H](O)CC(=O)O3)[C@H]21` [LOVASTATIN], the negative-log IC50 (pIC50) in the experiment with HepG2 [22] is 7.10; in experiment [23], 6.40.
